Experiment [1] concerns the target adenosine A2a receptor (A2aR) (Homo sapiens (Human), UniProt P29274). The experiment in a line: Inhibition of adenosine A2a receptor cAMP signaling pathway (HTRF cAMP, CHO-K1/A2aR cells). The format is cell-based. The text has this: (§1) Test Example 1. Determination of the inhibition activity of the compounds of the present invention on the adenosine A2a receptor (A2aR) cAMP signaling pathway, the adenosine A2b receptor (A2bR) cAMP signaling pathway, the adenosine A1 receptor (A1R) cAMP signaling pathway and the adenosine A3 receptor (A3R) cAMP signaling pathway.
(§2) The inhibition activity of the compounds of the present invention on the adenosine A2a receptor cAMP signaling pathway, the adenosine A2b receptor cAMP signaling pathway, the adenosine A1 receptor cAMP signaling pathway and the adenosine A3 receptor cAMP signaling pathway was determined by the following method. The experimental method is briefly described as follows:
2.1 Adenosine A2a Receptor
CHO-K1/A2aR cells were cultured in DMEM/F12 medium containing 10% fetal bovine serum and 800 μg/ml bleomycin. The cells were digested with the cell separation buffer during the experiment. The cells were resuspended in the balanced salt buffer containing 20 mM HEPES and 0.1% bovine serum albumin and counted, and the cell density was adjusted to 10^6 cells/ml. In the 384-well plate, each well was added with 5 μl of cell suspension, and 2.5 μl of test compound (4× concentration) formulated with the balanced salt buffer containing 20 mM HEPES, 0.1% bovine serum albumin, 54 μM rolipram and 2.7 U/ml adenosine deaminase, and the plate was incubated at room temperature for 30 minutes. Each well was then added with 2.5 μl of […] (4× concentration) formulated with the balanced salt buffer containing 20 mM HEPES, 0.1% bovine serum albumin, 54 μM rolipram and 2.7 U/ml adenosine deaminase, and the plate was incubated at room temperature for 30 minutes. The final concentrations of the compounds were: 10000, 2000, 400, 80, 16, 3.2, 0.64, 0.128, 0.0256, 0.00512, and 0.001024 nM. The final concentration of […] was 20 nM. Intracellular cAMP concentration was detected with the cAMP dynamic 2 kit. cAMP-d2 and Anti-cAMP-Eu-Cryptate were diluted respectively with the cAMP lysis buffer at a ratio of 1:4. Each well was added with 5 μl of diluted cAMP-d2, followed by addition of 5 μl of diluted Anti-cAMP-Eu-Cryptate, and the plate was incubated at room temperature in the dark for 1 hour. The HTRF signal values were read by the PHERAstar multi-function microplate reader.
(TR-FRET usually uses a lanthanide donor and a delayed reading to cut background.)

Experiment [2] deals with adenosine A2b receptor (A2bR) (Homo sapiens (Human), UniProt P29275). In words: Inhibition of adenosine A2b receptor cAMP signaling pathway (HTRF cAMP, CHO-K1/A2bR cells). The format is cell-based. Particulars: Table 3; for IC50: CHO-K1/A2bR cells, ethyl carbazole 1 μM, cAMP HTRF; for IC50 ratio (A2bR/A2aR): selectivity A2bR over A2aR.
adenosine A2b receptor (A2bR), sequence (P29275 whole entry): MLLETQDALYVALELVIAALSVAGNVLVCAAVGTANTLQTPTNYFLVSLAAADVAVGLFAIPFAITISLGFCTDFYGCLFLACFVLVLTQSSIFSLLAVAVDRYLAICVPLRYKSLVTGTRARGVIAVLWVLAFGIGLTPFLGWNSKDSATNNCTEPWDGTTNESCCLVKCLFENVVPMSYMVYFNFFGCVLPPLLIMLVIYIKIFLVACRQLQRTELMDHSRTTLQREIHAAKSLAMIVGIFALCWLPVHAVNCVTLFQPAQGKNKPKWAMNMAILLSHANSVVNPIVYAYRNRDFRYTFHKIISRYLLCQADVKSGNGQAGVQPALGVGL
Description: as §1, §2
2.4 Adenosine A2b receptor (A2bR)
CHO-K1/A2bR cells were cultured in DMEM/F12 medium containing 10% fetal bovine serum and 1 mg/ml G418. The cells were digested with the cell separation buffer during the experiment. The cells were resuspended in the balanced salt buffer containing 20 mM HEPES and 0.1% bovine serum albumin and counted, and the cell density was adjusted to 10^6 cells/ml. In the 384-well plate, each well was added with 5 μl of cell suspension, and 2.5 μl of test compound (4× concentration) formulated with the balanced salt buffer containing 20 mM HEPES, 0.1% bovine serum albumin, 54 μM rolipram and 2.7 U/ml adenosine deaminase, and the plate was incubated at room temperature for 30 minutes. Each well was then added with 2.5 μl of […] (4× concentration) (Torcis, 1691/10) formulated with the balanced salt buffer containing 20 mM HEPES, 0.1% bovine serum albumin, 54 μM rolipram and 2.7 U/ml adenosine deaminase, and the plate was incubated at room temperature for 30 minutes. The final concentrations of the compounds were: 100000, 10000, 1000, 100, 10, 1, 0.1 and 0 nM. The final concentration of […] was 1 μM. Intracellular cAMP concentration was detected with the cAMP dynamic 2 kit. cAMP-d2 and Anti-cAMP-Eu-Cryptate were diluted respectively with the cAMP lysis buffer at a ratio of 1:4. Each well was added with 5 μl of diluted cAMP-d2, followed by addition of 5 μl of diluted Anti-cAMP-Eu-Cryptate, and the plate was incubated at room temperature in the dark for 1 hour. The HTRF signal values were read by the PHERAstar multi-function microplate reader.

adenosine A2a receptor (A2aR), sequence (P29274 whole entry): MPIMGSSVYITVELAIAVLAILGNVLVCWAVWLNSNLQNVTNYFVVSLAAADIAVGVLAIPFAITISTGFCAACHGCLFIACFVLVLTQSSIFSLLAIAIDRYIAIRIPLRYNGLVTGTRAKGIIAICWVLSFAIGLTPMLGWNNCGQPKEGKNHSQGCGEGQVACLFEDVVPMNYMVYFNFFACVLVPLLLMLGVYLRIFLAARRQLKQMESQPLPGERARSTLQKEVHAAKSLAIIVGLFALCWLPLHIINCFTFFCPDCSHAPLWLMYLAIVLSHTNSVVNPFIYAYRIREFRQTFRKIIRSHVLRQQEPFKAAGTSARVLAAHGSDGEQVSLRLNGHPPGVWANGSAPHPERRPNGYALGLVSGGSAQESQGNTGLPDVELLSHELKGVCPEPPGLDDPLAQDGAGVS

With `Cc1cc(-c2c(-c3ccccc3)nc(N)n3cnnc23)cc(C(F)(F)F)n1` [Example 1, 8-(2-Methyl-6-(trifluoromethyl)pyridin-4-yl)-7-phenyl-[1,2,4]triazolo[4,3-c]pyrimidin-5-amine], the concentration for half-maximal inhibition (IC50) – broadly, the concentration that gives 50% inhibition – amounted to 0.23 nM in experiment [1] (Table 1, ethyl carbazole 20 nM); 0.23 nM in experiment [1] (Table 3, ethyl carbazole 20 nM); 58.5 nM in experiment [2]. The “IC50 ratio (A2bR/A2aR)” value in experiment [2] stood at 254.

For the molecule `Nc1nc(-c2ccccc2)c(-c2cc(F)c3[nH]ncc3c2)c2nncn12` [Example 6, 8-(7-Fluoro-1H-indazol-5-yl)-7-phenyl-[1,2,4]triazolo[4,3-c]pyrimidin-5-amine], the half-inhibitory concentration (IC50) in experiment [1] (Table 1, ethyl carbazole 20 nM) was found to be 0.14 nM.

As to `Cc1cc(-c2c(-c3ccc(C)o3)nc(N)n3cnnc23)cc(C(F)(F)F)n1` [Example 8, 8-(2-Methyl-6-(trifluoromethyl)pyridin-4-yl)-7-(5-methylfuran-2-yl)-[1,2,4]triazolo[4,3-c]pyrimidin-5-amine], the IC50 in experiment [1] (Table 1, ethyl carbazole 20 nM) worked out at 0.18 nM; in experiment [1] (Table 3, ethyl carbazole 20 nM) it was 0.18 nM; in experiment [2], 203 nM. For the same molecule, the “IC50 ratio (A2bR/A2aR)” value in experiment [2] stood at 1125.

As to `Nc1nc(-c2ccccc2)c(-c2cc(C(F)(F)F)c3[nH]ncc3c2)c2nncn12` [Example 9, 7-Phenyl-8-(7-(trifluoromethyl)-1H-indazol-5-yl)-[1,2,4]triazolo[4,3-c]pyrimidin-5-amine], in experiment [1] (Table 1, ethyl carbazole 20 nM), inhibition was half-maximal at 0.25 nM (IC50).

As to `Nc1nc(-c2ccccc2)c(-c2ccc3[nH]ncc3c2)c2nncn12` [Example 10, 8-(1H-indazol-5-yl)-7-phenyl-[1,2,4]triazolo[4,3-c]pyrimidin-5-amine], the IC50 turned out to be 0.26 nM in experiment [1] (Table 1, ethyl carbazole 20 nM); 0.26 nM in experiment [1] (Table 3, ethyl carbazole 20 nM); 91 nM in experiment [2]. The “IC50 ratio (A2bR/A2aR)” value in experiment [2] is on record as 350.

`Cc1cc(-c2c(-c3ccccc3)nc(N)n3cnnc23)ccn1` [Example 12, 8-(2-Methylpyridin-4-yl)-7-phenyl-[1,2,4]triazolo[4,3-c]pyrimidin-5-amine]: it took 0.63 nM to reach half-maximal inhibition in experiment [1] (Table 1, ethyl carbazole 20 nM) (IC50).

`Cc1cc(-c2c(-c3ccc(Cl)cc3)nc(N)n3cnnc23)cc(C(F)(F)F)n1` [Example 14, 7-(4-Chlorophenyl)-8-(2-methyl-6-(trifluoromethyl)pyridin-4-yl)-[1,2,4]triazolo[4,3-c]pyrimidin-5-amine] yielded an IC50 in experiment [1] (Table 1, ethyl carbazole 20 nM) of 1.56 nM.

As to `Cc1cc(-c2c(-c3ccc(F)cc3)nc(N)n3cnnc23)cc(Cl)n1` [Example 15, 8-(2-Chloro-6-methylpyridin-4-yl)-7-(4-fluorophenyl)-[1,2,4]triazolo[4,3-c]pyrimidin-5-amine], the IC50 in experiment [1] (Table 1, ethyl carbazole 20 nM) was determined as 0.17 nM; in experiment [1] (Table 3, ethyl carbazole 20 nM) it was 0.17 nM; in experiment [2] it was 98.9 nM. For the same molecule, the “IC50 ratio (A2bR/A2aR)” value in experiment [2] was 582.

`Cc1cc(-c2c(-c3ccc(F)cc3)nc(N)n3cnnc23)cc(C(F)(F)F)n1` [Example 16, 7-(4-Fluorophenyl)-8-(2-methyl-6-(trifluoromethyl)pyridin-4-yl)-[1,2,4]triazolo[4,3-c]pyrimidin-5-amine]: the half-inhibitory concentration (IC50) is 0.63 nM in experiment [1] (Table 1, ethyl carbazole 20 nM); 0.63 nM in experiment [1] (Table 3, ethyl carbazole 20 nM); 122 nM in experiment [2]. Also, the “IC50 ratio (A2bR/A2aR)” value in experiment [2] was 194.

`Cc1cc(-c2c(-c3ccccc3)nc(N)n3ccnc23)cc(C(F)(F)F)n1` [Example 17, 8-(2-Methyl-6-(trifluoromethyl)pyridin-4-yl)-7-phenylimidazo[1,2-c]pyrimidin-5-amine] yielded a concentration for half-maximal inhibition (IC50) in experiment [1] (Table 1, ethyl carbazole 20 nM) of 0.75 nM.

For the molecule `Cc1cc(-c2c(-c3ccccc3)nc(N)n3cc(C)nc23)cc(C)n1` [Example 21, 8-(2,6-Dimethylpyridin-4-yl)-2-methyl-7-phenylimidazo[1,2-c]pyrimidin-5-amine], the IC50 in experiment [1] (Table 1, ethyl carbazole 20 nM) is 2.46 nM.

Take `Nc1nc(-c2ccccc2)c(-c2cc(Cl)nc(C(F)(F)F)c2)c2nncn12` [Example 23, 8-(2-Chloro-6-(trifluoromethyl)pyridin-4-yl)-7-phenyl-[1,2,4]triazolo[4,3-c]pyrimidin-5-amine]: inhibition in experiment [1] (Table 1, ethyl carbazole 20 nM) was half-maximal at 0.23 nM (IC50).

As to `Cc1cc(-c2c(-c3ccccc3)nc(N)n3ccnc23)cc(Cl)n1` [Example 24, 8-(2-Chloro-6-methylpyridin-4-yl)-7-phenylimidazo[1,2-c]pyrimidin-5-amine], in experiment [1] (Table 1, ethyl carbazole 20 nM), it took 0.27 nM to reach half-maximal inhibition (IC50).

`COc1cc(-c2c(-c3ccccc3)nc(N)n3cnnc23)cc(C)n1` [Example 25, 8-(2-Methoxy-6-methylpyridin-4-yl)-7-phenyl-[1,2,4]triazolo[4,3-c]pyrimidin-5-amine]: in experiment [1] (Table 1, ethyl carbazole 20 nM), inhibition was half-maximal at 0.32 nM (IC50). The IC50 values of the last two molecules are within 1.5-fold of each other.

Take `CCc1cc(-c2c(-c3ccccc3)nc(N)n3cnnc23)cc(C)n1` [Example 26, 8-(2-Ethyl-6-methylpyridin-4-yl)-7-phenyl-[1,2,4]triazolo[4,3-c]pyrimidin-5-amine]: in experiment [1] (Table 1, ethyl carbazole 20 nM), the 50% inhibitory concentration (IC50) was found to be 0.42 nM. This IC50 and that of the molecule before are within 1.5-fold of each other.

In experiment [1] (Table 1, ethyl carbazole 20 nM), `Cc1cc(-c2c(-c3ccccc3)nc(N)n3ccnc23)cc(C)n1` [Example 31, 8-(2,6-Dimethylpyridin-4-yl)-7-phenylimidazo[1,2-c]pyrimidin-5-amine] displayed an IC50 of 0.93 nM.

For the molecule `Cc1cc(-c2c(-c3ccc(F)cc3)nc(N)n3ccnc23)cc(C)n1` [Example 32, 8-(2,6-Dimethylpyridin-4-yl)-7-(4-fluorophenyl)imidazo[1,2-c]pyrimidin-5-amine], it took 1 nM to reach half-maximal inhibition in experiment [1] (Table 1, ethyl carbazole 20 nM) (IC50).

In experiment [1] (Table 1, ethyl carbazole 20 nM), `Cc1ccc(-c2nc(N)n3cnnc3c2-c2cc(C)nc(Cl)c2)cc1` [Example 35, 8-(2-Chloro-6-methylpyridin-4-yl)-7-(p-tolyl)-[1,2,4]triazolo[4,3-c]pyrimidin-5-amine] yielded an IC50 of 0.18 nM.

As for `Cc1cc(-c2c(-c3ccc(Cl)cc3)nc(N)n3cnnc23)cc(Cl)n1` [Example 36, 8-(2-Chloro-6-methylpyridin-4-yl)-7-(4-chlorophenyl)-[1,2,4]triazolo[4,3-c]pyrimidin-5-amine], it took 3.47 nM to reach half-maximal inhibition in experiment [1] (Table 1, ethyl carbazole 20 nM) (IC50). This IC50 lies about 19-fold higher than the previous one.

Regarding `Nc1nc(-c2ccccc2)c(-c2ccncc2)c2nncn12` [Example 37, 7-Phenyl-8-(pyridin-4-yl)-[1,2,4]triazolo[4,3-c]pyrimidin-5-amine], in experiment [1] (Table 1, ethyl carbazole 20 nM), the IC50 was 2.11 nM.

`Nc1nc(-c2ccccc2)c(-c2ccnc(Cl)c2)c2nncn12` [Example 38, 8-(2-Chloropyridin-4-yl)-7-phenyl-[1,2,4]triazolo[4,3-c]pyrimidin-5-amine] had a half-inhibitory concentration (IC50) in experiment [1] (Table 1, ethyl carbazole 20 nM) of 2.18 nM.

The molecule `Cc1cc(-c2c(-c3ccc(F)cc3F)nc(N)n3cnnc23)cc(C)n1` [Example 40, 7-(2,4-Difluorophenyl)-8-(2,6-dimethylpyridin-4-yl)-[1,2,4]triazolo[4,3-c]pyrimidin-5-amine] displayed a 50% inhibitory concentration (IC50) in experiment [1] (Table 1, ethyl carbazole 20 nM) of 1.75 nM. The IC50 values of the last two molecules are within 1.5-fold of each other.

Regarding `CC(C)n1cc(-c2c(-c3ccccc3)nc(N)n3cnnc23)ccc1=O` [Example 43, 5-(5-Amino-7-phenyl-[1,2,4]triazolo[4,3-c]pyrimidin-8-yl)-1-isopropylpyridin-2(1H)-one], the half-maximal inhibitory concentration (IC50) in experiment [1] (Table 1, ethyl carbazole 20 nM) was 0.2 nM. Against the preceding molecule, the IC50 is about 8.8-fold lower.

Take `Cc1cc(-c2c(-c3ccc(Cl)cc3)nc(N)n3cnnc23)cc(CF)n1` [Example 53, 7-(4-Chlorophenyl)-8-(2-(fluoromethyl)-6-methylpyridin-4-yl)-[1,2,4]triazolo[4,3-c]pyrimidin-5-amine]: the half-maximal inhibitory concentration (IC50) in experiment [1] (Table 1, ethyl carbazole 20 nM) was 0.35 nM.

`Cc1cc(-c2c(-c3ccc(Cl)cc3)nc(N)n3cnnc23)cc(C)n1` [Example 54, 7-(4-Chlorophenyl)-8-(2,6-dimethylpyridin-4-yl)-[1,2,4]triazolo[4,3-c]pyrimidin-5-amine] showed a half-maximal inhibitory concentration (IC50) in experiment [1] (Table 1, ethyl carbazole 20 nM) of 0.48 nM.

These data come from patent US11312705B2, “Heteroaryl[4,3-C]pyrimidine-5-amine derivative, preparation method therefor, and medical uses thereof” (Jiangsu Hengrui Medicine Co., Ltd., priority 2017, dated 2022).
